Reference: article PMC2639596, “Antimicrobial peptides effectively kill a broad spectrum of Listeria monocytogenes and Staphylococcus aureus strains independently of origin, sub-type, or virulence factor expression” (BMC Microbiology, 2008)

What was measured:
[1] = tested on: Listeria monocytogenes; experiment: MIC of host defense peptides in liquid medium (microbroth dilution); format: cell-based; conditions: 37°C; for MIC values against L. monocytogenes (range over strains): range over 25 strains, MHB pH 7.4, 18–24 h; for MIC: 18–24 h
Method: (§1) Experiments were carried out with a collection of 25 Listeria monocytogenes strains (Table 1) and 16 Staphylococcus aureus strains (Table 2) representing different lineages and serotypes (L. monocytogenes), spa types (S. aureus), and origins (food processing environment, food products, and human clinical isolates). Six L. monocytogenes strains were mutants of the EGD strain and were mutated in genes known to be involved in stress tolerance. The S. aureus collection comprised two deletion mutants, strains Sa113/ΔmprF [8] and Sa113/ΔdltA [7], known to be more sensitive to host defense peptides. Two of the S. aureus strains could not immediately be assigned to an existing spa type and we are in the process of acquiring the additional information that is needed to assign a new spa type to them. The strains were obtained from The National Institute of Aquatic Resources and The National Food Institute, Technical University of Denmark, Faculty of Life Sciences, University of Copenhagen, Denmark, Statens Serum Institut, Denmark, University of Würzburg, Germany and Campden Food and Drink Association, United Kingdom. Stock cultures were stored at -80°C in 4% (w/V) glycerol, 0.5% (w/V) glucose, and 2.0% (w/V) skimmed milk powder. The bacteria were grown in Brain Heart Infusion (BHI) broth (Oxoid, CM0225), Tryptone Soy Broth (TSB) (Oxoid, CM129), and cation-adjusted Mueller-Hinton II Broth (MHB) (Becton Dickinson, 212322) adjusted to pH 7.4. To avoid unspecific binding of host defense peptides to plastic ware and agar, all MIC determinations were carried out using polypropylene plastic ware and radial diffusion assays were carried out in MHB supplemented with 1% agarose (Invitrogen, 15510-027) as gelling agent.
(§2) Protamine was purchased from Sigma (P4020-5G). Plectasin, novicidin, and novispirin G10 were supplied by Novozymes A/S. Recombinant HBD-3 was purchased from PeproTech (300-52).
(§3) The strain collection was tested for sensitivity to protamine, plectasin, novicidin, and novispirin G10 by determining their minimal inhibitory concentration (MIC) using a microbroth dilution method. Colonies from a BHI agar plate incubated overnight were suspended in MHB pH 7.4 to a turbidity of 0.11–0.12 at 546 nm (approx. 1.0 × 10^8 CFU/ml) and diluted in MHB to a concentration of 5.0 × 10^5 CFU/ml. 90 μl of bacterial suspension was incubated with 10 μl of peptide solution in polypropylene 96-well plates (Nunc, 442587) for 18–24 h at 37°C. The peptide solutions were made fresh on the day of assay and diluted two-fold. The range of concentrations assayed were 0.031–32 μg/ml for novicidin, 0.125–128 μg/ml for protamine and novispirin G10, and 0.25–256 μg/ml for plectasin. MIC was the lowest peptide concentration at which visual growth was inhibited. The minimum bactericidal concentration (MBC) values were determined by plating l0 μl samples from wells with no visible growth onto BHI agar plates. MBC was the lowest concentration of each peptide of which 99.9% reduction of the initial inoculum was observed.

[2] = tested on: Staphylococcus aureus; experiment: as above; format: cell-based; conditions: 37°C; for MIC values against S. aureus (range over strains): range over 16 strains, MHB pH 7.4, 18–24 h; for MIC: 18–24 h
Method: as §1, §2, §3

[3] = tested on: L. monocytogenes and S. aureus; experiment: Minimum bactericidal concentration (MBC), plating from MIC wells; format: cell-based, Listeria monocytogenes, Staphylococcus aureus; conditions: 99.9% reduction of initial inoculum; 10 μl from wells with no visible growth plated on BHI agar
Method: as §3

[4] = strain 2275 (EGD dps del), MHB pH 7.4, 5.0 × 10^5 CFU/ml
[5] = strain 2307 (EGD resD del), MHB pH 7.4, 5.0 × 10^5 CFU/ml
[6] = strain 2315 (EGD sigB del), MHB pH 7.4, 5.0 × 10^5 CFU/ml
[7] = strain 2317 (EGD prfA del), MHB pH 7.4, 5.0 × 10^5 CFU/ml
[8] = strain 2374 (EGD perR ins), MHB pH 7.4, 5.0 × 10^5 CFU/ml
[9] = strain 2375 (EGD perR del), MHB pH 7.4, 5.0 × 10^5 CFU/ml
[10] = strain 4239, MHB pH 7.4, 5.0 × 10^5 CFU/ml
[11] = strain 4446, MHB pH 7.4, 5.0 × 10^5 CFU/ml
[12] = strain 4459, MHB pH 7.4, 5.0 × 10^5 CFU/ml
[13] = strain 4666, MHB pH 7.4, 5.0 × 10^5 CFU/ml
[14] = strain 6895, MHB pH 7.4, 5.0 × 10^5 CFU/ml
[15] = strain 7291, MHB pH 7.4, 5.0 × 10^5 CFU/ml
[16] = strain 7418, MHB pH 7.4, 5.0 × 10^5 CFU/ml
[17] = strain EGD (wildtype), MHB pH 7.4, 5.0 × 10^5 CFU/ml
[18] = strain H13-1, MHB pH 7.4, 5.0 × 10^5 CFU/ml
[19] = strain LO28 (wildtype), MHB pH 7.4, 5.0 × 10^5 CFU/ml
[20] = strain La22, MHB pH 7.4, 5.0 × 10^5 CFU/ml
[21] = strain La111, MHB pH 7.4, 5.0 × 10^5 CFU/ml
[22] = strain M103-1, MHB pH 7.4, 5.0 × 10^5 CFU/ml
[23] = strain N53-1, MHB pH 7.4, 5.0 × 10^5 CFU/ml
[24] = strain No40-1, MHB pH 7.4, 5.0 × 10^5 CFU/ml
[25] = strain O57, MHB pH 7.4, 5.0 × 10^5 CFU/ml
[26] = strain R479a, MHB pH 7.4, 5.0 × 10^5 CFU/ml
[27] = strain Scott A, MHB pH 7.4, 5.0 × 10^5 CFU/ml
[28] = strain V518a, MHB pH 7.4, 5.0 × 10^5 CFU/ml
[29] = strain 796, MHB pH 7.4, 5.0 × 10^5 CFU/ml
[30] = strain 2148-jvi, MHB pH 7.4, 5.0 × 10^5 CFU/ml
[31] = strain 8325-4 (wildtype), MHB pH 7.4, 5.0 × 10^5 CFU/ml
[32] = strain 14943, MHB pH 7.4, 5.0 × 10^5 CFU/ml
[33] = strain 15033, MHB pH 7.4, 5.0 × 10^5 CFU/ml
[34] = strain B29997, MHB pH 7.4, 5.0 × 10^5 CFU/ml
[35] = strain B31369, MHB pH 7.4, 5.0 × 10^5 CFU/ml
[36] = strain J15033, MHB pH 7.4, 5.0 × 10^5 CFU/ml
[37] = strain K3-B2, MHB pH 7.4, 5.0 × 10^5 CFU/ml
[38] = strain KES 439, MHB pH 7.4, 5.0 × 10^5 CFU/ml
[39] = strain KES 626, MHB pH 7.4, 5.0 × 10^5 CFU/ml
[40] = strain KES 735, MHB pH 7.4, 5.0 × 10^5 CFU/ml
[41] = strain KES 855, MHB pH 7.4, 5.0 × 10^5 CFU/ml
[42] = strain Sa113 (wildtype), MHB pH 7.4, 5.0 × 10^5 CFU/ml
[43] = strain ΔdltA (Sa113 dltA ins), MHB pH 7.4, 5.0 × 10^5 CFU/ml
[44] = strain ΔmprF (Sa113 mprF del), MHB pH 7.4, 5.0 × 10^5 CFU/ml

## novicidin
[1]
  MIC values against L. monocytogenes (range over strains): 2 to 8 µg/mL
[1]; [4]
  MIC: 4 µg/mL
[1]; [5]
  MIC: 2 µg/mL
[1]; [6]
  MIC: 4 µg/mL
[1]; [7]
  MIC: 4 µg/mL
[1]; [8]
  MIC: 4 µg/mL
[1]; [9]
  MIC: 4 µg/mL
[1]; [10]
  MIC: 4 µg/mL
[1]; [11]
  MIC: 4 µg/mL
[1]; [12]
  MIC: 4 µg/mL
[1]; [13]
  MIC: 8 µg/mL
[1]; [14]
  MIC: 4 µg/mL
[1]; [15]
  MIC: 8 µg/mL
[1]; [16]
  MIC: 4 µg/mL
[1]; [17]
  MIC: 4 µg/mL
[1]; [18]
  MIC: 4 µg/mL
[1]; [19]
  MIC: 2 µg/mL
[1]; [20]
  MIC: 4 µg/mL
[1]; [21]
  MIC: 4 µg/mL
[1]; [22]
  MIC: 4 µg/mL
[1]; [23]
  MIC: 2 µg/mL
[1]; [24]
  MIC: 4 µg/mL
[1]; [25]
  MIC: 4 µg/mL
[1]; [26]
  MIC: 4 µg/mL
[1]; [27]
  MIC: 4 µg/mL
[1]; [28]
  MIC: 8 µg/mL
[2]
  MIC values against S. aureus (range over strains): 0.5 to 12 µg/mL
[2]; [29]
  MIC: 6 µg/mL
[2]; [30]
  MIC: 4 µg/mL
[2]; [31]
  MIC: 8 µg/mL
[2]; [32]
  MIC: 8 µg/mL
[2]; [33]
  MIC: 8 µg/mL
[2]; [34]
  MIC: 4 µg/mL
[2]; [35]
  MIC: 12 µg/mL
[2]; [36]
  MIC: 8 µg/mL
[2]; [37]
  MIC: 4 µg/mL
[2]; [38]
  MIC: 4 µg/mL
[2]; [39]
  MIC: 4 µg/mL
[2]; [40]
  MIC: 4 µg/mL
[2]; [41]
  MIC: 4 µg/mL
[2]; [42]
  MIC: 6 µg/mL
[2]; [43]
  MIC: 0.5 µg/mL
[2]; [44]
  MIC: 1 µg/mL
[3]
  minimum bactericidal concentrations (MBC): identical to the MICs

## novispirin G10
[1]; [4]
  MIC: 64 µg/mL
[1]; [5]
  MIC: 32 µg/mL
[1]; [6]
  MIC: 64 µg/mL
[1]; [7]
  MIC: 64 µg/mL
[1]; [8]
  MIC: 32 µg/mL
[1]; [9]
  MIC: 32 µg/mL
[1]; [10]
  MIC: 64 µg/mL
[1]; [11]
  MIC: 64 µg/mL
[1]; [12]
  MIC: 32 µg/mL
[1]; [13]
  MIC: 64 µg/mL
[1]; [14]
  MIC: 96 µg/mL
[1]; [15]
  MIC: 128 µg/mL
[1]; [16]
  MIC: 64 µg/mL
[1]; [17]
  MIC: 64 µg/mL
[1]; [18]
  MIC: 64 µg/mL
[1]; [19]
  MIC: 16 µg/mL
[1]; [20]
  MIC: 64 µg/mL
[1]; [21]
  MIC: 32 µg/mL
[1]; [22]
  MIC: 64 µg/mL
[1]; [23]
  MIC: 32 µg/mL
[1]; [24]
  MIC: 64 µg/mL
[1]; [25]
  MIC: 128 µg/mL
[1]; [26]
  MIC: 64 µg/mL
[1]; [27]
  MIC: 32 µg/mL
[1]; [28]
  MIC: 64 µg/mL
[2]; [29]
  MIC: 128 µg/mL
[2]; [30]
  MIC: 64 µg/mL
[2]; [31]
  MIC: 128 µg/mL
[2]; [33]
  MIC: 128 µg/mL
[2]; [34]
  MIC: 128 µg/mL
[2]; [35]
  MIC: 256 µg/mL
[2]; [36]
  MIC: 128 µg/mL
[2]; [37]
  MIC: 128 µg/mL
[2]; [38]
  MIC: 128 µg/mL
[2]; [39]
  MIC: 64 µg/mL
[2]; [40]
  MIC: 128 µg/mL
[2]; [41]
  MIC: 64 µg/mL
[2]; [42]
  MIC: 128 µg/mL
[2]; [43]
  MIC: 2 µg/mL
[2]; [44]
  MIC: 8 µg/mL
[3]
  minimum bactericidal concentrations (MBC): identical to the MICs

## protamine
[1]
  MIC values against L. monocytogenes (range over strains): 8 to 32 µg/mL
[1]; [4]
  MIC: 16 µg/mL
[1]; [5]
  MIC: 8 µg/mL
[1]; [6]
  MIC: 8 µg/mL
[1]; [7]
  MIC: 16 µg/mL
[1]; [8]
  MIC: 32 µg/mL
[1]; [9]
  MIC: 32 µg/mL
[1]; [10]
  MIC: 32 µg/mL
[1]; [11]
  MIC: 16 µg/mL
[1]; [12]
  MIC: 16 µg/mL
[1]; [13]
  MIC: 8 µg/mL
[1]; [14]
  MIC: 16 µg/mL
[1]; [15]
  MIC: 32 µg/mL
[1]; [16]
  MIC: 32 µg/mL
[1]; [17]
  MIC: 8 µg/mL
[1]; [18]
  MIC: 16 µg/mL
[1]; [19]
  MIC: 8 µg/mL
[1]; [20]
  MIC: 16 µg/mL
[1]; [21]
  MIC: 8 µg/mL
[1]; [22]
  MIC: 32 µg/mL
[1]; [23]
  MIC: 16 µg/mL
[1]; [24]
  MIC: 16 µg/mL
[1]; [25]
  MIC: 16 µg/mL
[1]; [26]
  MIC: 16 µg/mL
[1]; [27]
  MIC: 16 µg/mL
[1]; [28]
  MIC: 32 µg/mL
[2]
  MIC values against S. aureus (range over strains): 8 to 32 µg/mL
[2]; [29]
  MIC: 16 µg/mL
[2]; [30]
  MIC: 16 µg/mL
[2]; [31]
  MIC: 16 µg/mL
[2]; [32]
  MIC: 16 µg/mL
[2]; [33]
  MIC: 32 µg/mL
[2]; [34]
  MIC: 16 µg/mL
[2]; [35]
  MIC: 16 µg/mL
[2]; [36]
  MIC: 16 µg/mL
[2]; [37]
  MIC: 16 µg/mL
[2]; [38]
  MIC: 32 µg/mL
[2]; [39]
  MIC: 16 µg/mL
[2]; [40]
  MIC: 16 µg/mL
[2]; [41]
  MIC: 16 µg/mL
[2]; [42]
  MIC: 16 µg/mL
[2]; [43]
  MIC: 8 µg/mL
[2]; [44]
  MIC: 8 µg/mL
